Some test systems named below: IGROV-1; SN12C; DU-145; NCI/ADR-RES; 786-0; MDA-MB-435; OVCAR-8; SNB-75; HCT-15; SK-MEL-28; NCI-H23; SW-620; SK-MEL-2; MCF7; MOLT-4; CCRF-CEM; COLO 205; SNB-19; CAKI-1.
Holding throughout (assay): NCI tumour cell line growth inhibition, 48 h

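In this assay, cells in 96-well plates receive the compound at five concentrations for 48 hours. Endpoints are linearly interpolated between the surrounding concentrations. At the GI50, growth is halved.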 Calls of active or inactive are those of the source. Rule as the data show it: active = GI50 up to about 1.1 µM and inactive = higher.

Turning to `COC(=O)C1=CC2C(=O)c3ccccc3C1(c1ccccc1)N2C1CCCCC1` (configuration not stated), the GI50 in the experiment with IGROV-1 is 20.1 µM (inactive); in the experiment on SN12C it was 24 µM (inactive); in the experiment with DU-145 it was 27 µM (inactive); in the experiment on NCI/ADR-RES, 27.9 µM (inactive); in the experiment with 786-0, > 100 µM (inactive); with MDA-MB-435, 16.9 µM (inactive). The GI50 in the experiment on OVCAR-8 is 27 µM (inactive); with SNB-75, 35.1 µM (inactive); in the experiment with HCT-15 it was 27 µM; in the experiment with SK-MEL-28, 17.6 µM (inactive); with NCI-H23 it was 18.7 µM (inactive); in the experiment with SW-620 it was 27.2 µM (inactive). The GI50 in the experiment with SK-MEL-2 was 12.3 µM (inactive); in the experiment on MCF7, 15.6 µM (inactive); in the experiment on MOLT-4, 7.55 µM (inactive); with CCRF-CEM it was 15.1 µM (inactive); with COLO 205, 13.1 µM (inactive); in the experiment with SNB-19, 39.9 µM (inactive). The GI50 in the experiment on CAKI-1 is 20.5 µM (inactive).
Turning to `CCCO/S(=N\S(=O)(=O)c1ccccc1)c1ccccc1[N+](=O)[O-]` (configuration not stated), the GI50 in the experiment with IGROV-1 was > 100 µM (inactive); in the experiment with SN12C, > 100 µM (inactive); in the experiment with 786-0 it was > 100 µM (inactive); in the experiment on OVCAR-8 it was > 100 µM (inactive); in the experiment on SNB-75, > 100 µM (inactive); in the experiment with HCT-15, > 100 µM. Besides, the GI50 in the experiment with SK-MEL-28 is 63.8 µM (inactive); in the experiment on NCI-H23 it was > 100 µM (inactive); in the experiment on SW-620, > 100 µM (inactive); with SK-MEL-2, > 100 µM (inactive); in the experiment on MOLT-4, > 100 µM (inactive); in the experiment with CCRF-CEM it was > 100 µM (inactive). Besides, the GI50 with COLO 205, in the experiment on SNB-19 and with CAKI-1 was > 100 µM (inactive) throughout.
Consider `CC(=O)OC1=C2CC3(C)OC(=O)CC(C)(C)C3=CC=C2C=C(C(C)C)C1=O` (configuration not stated), for which the GI50 was 0.845 µM (active) in the experiment on IGROV-1; 0.684 µM (active) in the experiment on SN12C; 0.203 µM (active) in the experiment with 786-0; 0.288 µM (active) with OVCAR-8; 0.71 µM (active) in the experiment on SNB-75; 0.179 µM with HCT-15. Further, the GI50 in the experiment with SK-MEL-28 was 0.456 µM (active); in the experiment on NCI-H23, 0.42 µM (active); in the experiment with SW-620 it was 0.316 µM (active); in the experiment with SK-MEL-2, 0.459 µM (active); in the experiment with MOLT-4, 0.294 µM (active); in the experiment with CCRF-CEM it was 0.316 µM (active). Further, the GI50 was 0.631 µM (active) in the experiment on COLO 205, 1.83 µM (inactive) with SNB-19 and 1.56 µM (inactive) in the experiment on CAKI-1.
Turning to `CC(C)(C)c1cc(CCC(=O)Nc2ccc(Cl)cc2)nc(S)n1`, the GI50 in the experiment on IGROV-1 was > 100 µM (inactive); with SN12C, > 100 µM (inactive); in the experiment on 786-0, > 100 µM (inactive); with OVCAR-8, > 100 µM (inactive); in the experiment on SNB-75 it was > 100 µM (inactive); in the experiment with HCT-15, > 100 µM. Also, the GI50 in the experiment on SK-MEL-28, with NCI-H23, with SW-620, in the experiment on SK-MEL-2, in the experiment on MOLT-4 and in the experiment on CCRF-CEM was > 100 µM (inactive) in each case. Further, the GI50 in the experiment with COLO 205, in the experiment with SNB-19 and in the experiment on CAKI-1 was > 100 µM (inactive) in each case.
`COc1ccc(/C=C2/C[N+](C)(C)C/C(=C/c3ccc(OC)cc3)C2=O)cc1`: the GI50 in the experiment with IGROV-1 is 23.9 µM (inactive); in the experiment with SN12C, 36.1 µM (inactive); with 786-0 it was 34.7 µM (inactive); in the experiment on OVCAR-8 it was 31.9 µM (inactive); with SNB-75, 66.7 µM (inactive); in the experiment on HCT-15, > 100 µM. The GI50 was 12.9 µM (inactive) in the experiment on SK-MEL-28; 56 µM (inactive) in the experiment with NCI-H23; 42.7 µM (inactive) in the experiment on SW-620; 25.6 µM (inactive) in the experiment on SK-MEL-2; 16.7 µM (inactive) in the experiment with MOLT-4; 18.5 µM (inactive) in the experiment on CCRF-CEM. In addition, the GI50 in the experiment with COLO 205 is 16.9 µM (inactive); with SNB-19, 43.3 µM (inactive); in the experiment with CAKI-1, > 100 µM (inactive).
Consider `CC1(C)[C@@H]2C[C@H]1C(Cc1ccccc1C[C@H]1c3cc(-c4ccccn4)ncc3[C@H]3C[C@@H]1C3(C)C)c1cc(-c3ccccn3)ncc12` (some centres not stated), for which the GI50 was 0.274 µM (active) in the experiment with IGROV-1; 0.479 µM (active) with SN12C; 0.375 µM (active) in the experiment with DU-145; 1.91 µM (inactive) in the experiment with NCI/ADR-RES; 0.253 µM (active) with 786-0; 0.416 µM (active) in the experiment with MDA-MB-435. Further, the GI50 in the experiment with OVCAR-8 is 0.378 µM (active); in the experiment with SNB-75 it was 0.679 µM (active); in the experiment on HCT-15, 0.41 µM; with SK-MEL-28, 0.527 µM (active); in the experiment with NCI-H23, 0.726 µM (active); in the experiment with SW-620, 0.6 µM (active). Besides, the GI50 in the experiment on MCF7 is 0.362 µM (active); with MOLT-4 it was 0.236 µM (active); with CCRF-CEM, 0.223 µM (active); with COLO 205 it was 0.399 µM (active); in the experiment on SNB-19 it was 0.611 µM (active); in the experiment with CAKI-1, 0.568 µM (active).
For `CCOC(=O)NC(=O)c1cn(CC(=O)NCC(=O)NCC(=O)N2CCN(CCn3c(C)nc(C(N)=O)c3N)CC2)c(=O)[nH]c1=O`, the GI50 in the experiment with IGROV-1 is > 100 µM (inactive); with SN12C, > 100 µM (inactive); in the experiment with 786-0, > 100 µM (inactive); in the experiment with OVCAR-8, > 100 µM (inactive); in the experiment on SNB-75 it was > 100 µM (inactive); with HCT-15 it was > 100 µM. In addition, the GI50 with SK-MEL-28, in the experiment with NCI-H23, with SW-620, in the experiment with SK-MEL-2, in the experiment with MOLT-4 and in the experiment on CCRF-CEM was > 100 µM (inactive) each time. The GI50 with COLO 205, in the experiment with SNB-19 and in the experiment with CAKI-1 was > 100 µM (inactive) in each case.
For the compound `Cc1cc2c(cc1C)[n+]([O-])c(C(=O)/C=C/c1ccc(Cl)cc1)c(C)[n+]2[O-]`, the GI50 in the experiment with IGROV-1 was 24.5 µM (inactive); in the experiment on SN12C, 32.8 µM (inactive); in the experiment with 786-0 it was 18.9 µM (inactive); in the experiment on OVCAR-8, 29.7 µM (inactive); with SNB-75, 19.6 µM (inactive); in the experiment with HCT-15 it was 33 µM. Besides, the GI50 in the experiment on SK-MEL-28 is 23.2 µM (inactive); in the experiment on NCI-H23, 20.7 µM (inactive); in the experiment on SW-620 it was 31.1 µM (inactive); with SK-MEL-2, 29.5 µM (inactive); in the experiment with MOLT-4, 23.8 µM (inactive); with CCRF-CEM, 32.9 µM (inactive). The figures for the GI50 in the experiment on COLO 205, in the experiment on SNB-19 and in the experiment with CAKI-1 were 20.5 µM (inactive), 30.3 µM (inactive) and 32.3 µM (inactive), respectively.
For the compound `O=c1[nH]nc2ccccc2c1Cl`, the GI50 in the experiment on IGROV-1 was 12.6 µM (inactive); in the experiment on SN12C, 17.6 µM (inactive); in the experiment with 786-0, 14.6 µM (inactive); in the experiment on OVCAR-8, 21.2 µM (inactive); in the experiment with SNB-75, 10.7 µM (inactive); in the experiment with HCT-15, 6.41 µM. Besides, the GI50 was > 10 µM (inactive) in the experiment on SK-MEL-28; 15.1 µM (inactive) with NCI-H23; 13.8 µM (inactive) in the experiment with SW-620; 17.3 µM (inactive) in the experiment with SK-MEL-2; 14 µM (inactive) in the experiment on MOLT-4; 6.14 µM (inactive) with CCRF-CEM. Further, the GI50 was 11.4 µM (inactive) in the experiment with COLO 205, 16.1 µM (inactive) in the experiment with SNB-19 and 3.18 µM (inactive) with CAKI-1.

For the origin of these results see ChEMBL document CHEMBL1201862, “PubChem BioAssay data set” (2004).
